Test results as given in publication PMC7699199, “Identification and Validation of Carbonic Anhydrase II as the First Target of the Anti-Inflammatory Drug Actarit” (Biomolecules, 2020).

Molecular target: T1, carbonic anhydrase II (CAII) (Homo sapiens, UniProt P00918)
T1 construct: gene CA2
Assay: Wilbur-Anderson electrometric CO2 hydration assay with recombinant human CAII
Type: biochemical

## CC(=O)Nc1ccc(CC(=O)O)cc1 [actarit]
  IC50: 422 nM
